The values below come from patent US20170233345A1, “SUBSTITUTED QUINOLINE-4-CARBOXAMIDES AND USE THEREOF” (BAYER PHARMA AKTIENGESELLSCHAFT, priority 2014, published 2017).

This experiment concerns recombinant guanylate cyclase reporter cell line. Description: Effect on a recombinant guanylate cyclase reporter cell line. To be noted: in some cases mean values from individual determinations, read-out: MEC (minimum effective concentration). Format: cell-based. Here is the method:
B-2. Effect on a Recombinant Guanylate Cyclase Reporter Cell Line
The cellular activity of the compounds according to the invention is determined using a recombinant guanylate cyclase reporter cell line, as described in F. Wunder et al., Anal. Biochem. 339, 104-112 (2005).
Representative MEC values (MEC=minimum effective concentration) for the compounds of the invention are shown in the table below (in some cases as mean values from individual determinations): […]

Take `O=C(NC1(c2ccc(F)cc2)CC1)c1cnc2c(OCc3c(F)cccc3F)cccc2c1` [Example 39, 8-[(2,6-Difluorobenzyl)oxy]-N-[1-(4-fluorophenyl)cyclopropyl]quinoline-3-carboxamide]: the minimal effective concentration was found to be 1 µM.

In the case of `CC[C@](C)(N)CNC(=O)c1cnc2c(OCc3c(F)cccc3F)cccc2c1` [Example 41, N-[(2S)-2-Amino-2-methylbutyl]-8-[(2,6-difluorobenzyl)oxy]quinoline-3-carboxamide], the minimal effective concentration was 10 µM.

Take `N#C[C@H]1CC[C@H](CNC(=O)c2ccnc3c(OCc4c(F)cccc4F)cccc23)CC1` [Example 44]: the minimal effective concentration is reported as 10 µM.

`CCCC[C@H](CO)NC(=O)c1cc(C)nc2c(OCc3c(F)cccc3F)cccc12` [Example 46, ent-8-[(2,6-Difluorobenzyl)oxy]-N-[(2R)-1-hydroxyhexan-2-yl]-2-methylquinoline-4-carboxamide (Enantiomer)]: the minimal effective concentration amounted to 2 µM.

Turning to `Cc1cc(OCc2c(F)cccc2F)c2nccc(C(=O)N[C@@](C)(CO)c3nnc(C)s3)c2c1` [Example 48, ent-8-[(2,6-Difluorobenzyl)oxy]-N-[(2S)-1-hydroxy-2-(5-methyl-1,3,4-thiadiazol-2-yl)propan-2-yl]-6-methylquinoline-4-carboxamide], the minimal effective concentration worked out at 3 µM.
